Reference: patent US9290777B2, “Putative cytokinin receptor and methods for use thereof” (NATIONAL UNIVERSITY OF SINGAPORE, priority 2007, dated 2016)
“Also recorded” adds a separate entry of the source.

System: KNAT1
Assay: qRT-PCR of cytokinin responsive gene after BA pulse, fold change vs untreated wild type
Assay type: cell-based, Arabidopsis thaliana
Procedure: For quantitative real-time PCR (qRT-PCR) analysis of cytokinin-inducible gene expression, seeds were germinated on MS medium with 3% (w/v) sucrose and grown for 6 days. Cytokinin treatment was carried out by incubating seedlings in the same MS+sucrose liquid medium (no agar) supplemented with 0, 0.01, 0.1, 1 or 5 μM [solubilized in 0.1% dimethylsulfoxide (DMSO) and diluted with the MS medium] for 5 min, 15 min, 30 min or 1 h. The control seedlings were incubated with DMSO (0.1%, the concentration used to dissolve cytokinins for the treatment) for the corresponding durations and used for expression analysis. Before RNA preparation, WT, OE and AS seedlings were pooled and stored in RNAlater solution (Qiagen, Valencia, Calif.). Total RNA was extracted using the Rneasy Plant Mini Kit (Qiagen). SYBRgreen RT-PCR reagents (Applied Biosystems) were used to synthesize double-stranded cDNA. The number of transcripts present in biological replicates each of WT, OE and AS seedlings, with or without BA and DMSO, was determined from three independent replicates. Fold induction of the transcripts was calculated according to the manufacturer's instructions (ABI Prism 7700 Sequence Detection System, User Bulletin #2).

c1ccc(CNc2ncnc3nc[nH]c23)cc1 [benzyladenine] was tested, and the “KNAT1 transcripts in OE lines compared to untreated wild type” value (5 μM BA, 1 h, OE lines (e.g. OE1, OE12), listed as BA) was “less than a two fold change; also recorded: no significant difference”, the KNAT1 fold change (BA 0.01 μM, 5 min, AS1, ↑ up) was 8.12↑ and the KNAT1 fold change (BA 0.01 μM, 5 min, AS8, ↑ up) was 9.1↑. For the same compound, the KNAT1 fold change (BA 0.01 μM, 5 min, AS21, ↑ up) was 10.01↑, the KNAT1 fold change (BA 0.01 μM, 5 min, OE1, ↓ down) was 4.01↓ and the KNAT1 fold change (BA 0.01 μM, 5 min, OE12, ↓ down) was 4.87↓. For the same compound, the KNAT1 fold change (BA 0.01 μM, 5 min, OE18, ↓ down) was 6.56↓, the KNAT1 fold change (BA 0.01 μM, 5 min, Wild type, ↑ up) was 2.13↑ and the KNAT1 fold change (BA 0.01 μM, 15 min, AS1, ↑ up) was 8.57↑. For the same compound, the KNAT1 fold change (BA 0.01 μM, 15 min, AS8, ↑ up) was 9.21↑, the KNAT1 fold change (BA 0.01 μM, 15 min, AS21, ↑ up) was 10.39↑ and the KNAT1 fold change (BA 0.01 μM, 15 min, OE1, ↓ down) was 3.86↓. The KNAT1 fold change (BA 0.01 μM, 15 min, OE12, ↓ down) was 4.56↓, the KNAT1 fold change (BA 0.01 μM, 15 min, OE18, ↓ down) was 6.32↓ and the KNAT1 fold change (BA 0.01 μM, 15 min, Wild type, ↑ up) was 2.67↑. For the same compound, the KNAT1 fold change (BA 0.01 μM, 30 min, AS1, ↑ up) was 8.98↑, the KNAT1 fold change (BA 0.01 μM, 30 min, AS8, ↑ up) was 9.86↑ and the KNAT1 fold change (BA 0.01 μM, 30 min, AS21, ↑ up) was 10.53↑. For the same compound, the KNAT1 fold change (BA 0.01 μM, 30 min, OE1, ↓ down) was 3.41↓, the KNAT1 fold change (BA 0.01 μM, 30 min, OE12, ↓ down) was 4.13↓ and the KNAT1 fold change (BA 0.01 μM, 30 min, OE18, ↓ down) was 6.13↓. The KNAT1 fold change (BA 0.01 μM, 30 min, Wild type, ↑ up) was 2.98↑, the KNAT1 fold change (BA 0.01 μM, 1 h, AS1, ↑ up) was 9.20↑ and the KNAT1 fold change (BA 0.01 μM, 1 h, AS8, ↑ up) was 9.98↑. The KNAT1 fold change (BA 0.01 μM, 1 h, AS21, ↑ up) was 11.99↑, the KNAT1 fold change (BA 0.01 μM, 1 h, OE1, ↓ down) was 3.01↓ and the KNAT1 fold change (BA 0.01 μM, 1 h, OE12, ↓ down) was 3.06↓. For the same compound, the KNAT1 fold change (BA 0.01 μM, 1 h, OE18, ↓ down) was 5.98↓, the KNAT1 fold change (BA 0.01 μM, 1 h, Wild type, ↑ up) was 3.15↑ and the KNAT1 fold change (BA 0.1 μM, 5 min, AS1, ↑ up) was 9.14↑. The KNAT1 fold change (BA 0.1 μM, 5 min, AS8, ↑ up) was 10.12↑, the KNAT1 fold change (BA 0.1 μM, 5 min, AS21, ↑ up) was 11.11↑ and the KNAT1 fold change (BA 0.1 μM, 5 min, OE1, ↓ down) was 3.56↓. For the same compound, the KNAT1 fold change (BA 0.1 μM, 5 min, OE12, ↓ down) was 3.91↓, the KNAT1 fold change (BA 0.1 μM, 5 min, OE18, ↓ down) was 5.89↓ and the KNAT1 fold change (BA 0.1 μM, 5 min, Wild type, ↑ up) was 3.36↑. The KNAT1 fold change (BA 0.1 μM, 15 min, AS1, ↑ up) was 9.39↑, the KNAT1 fold change (BA 0.1 μM, 15 min, AS8, ↑ up) was 10.32↑ and the KNAT1 fold change (BA 0.1 μM, 15 min, AS21, ↑ up) was 11.26↑. The KNAT1 fold change (BA 0.1 μM, 15 min, OE1, ↓ down) was 3.24↓, the KNAT1 fold change (BA 0.1 μM, 15 min, OE12, ↓ down) was 3.71↓ and the KNAT1 fold change (BA 0.1 μM, 15 min, OE18, ↓ down) was 5.72↓. For the same compound, the KNAT1 fold change (BA 0.1 μM, 15 min, Wild type, ↑ up) was 3.58↑, the KNAT1 fold change (BA 0.1 μM, 30 min, AS1, ↑ up) was 9.69↑ and the KNAT1 fold change (BA 0.1 μM, 30 min, AS8, ↑ up) was 10.57↑. The KNAT1 fold change (BA 0.1 μM, 30 min, AS21, ↑ up) was 11.48↑, the KNAT1 fold change (BA 0.1 μM, 30 min, OE1, ↓ down) was 3.12↓ and the KNAT1 fold change (BA 0.1 μM, 30 min, OE12, ↓ down) was 3.59↓. For the same compound, the KNAT1 fold change (BA 0.1 μM, 30 min, OE18, ↓ down) was 5.36↓, the KNAT1 fold change (BA 0.1 μM, 30 min, Wild type, ↑ up) was 3.89↑ and the KNAT1 fold change (BA 0.1 μM, 1 h, AS1, ↑ up) was 9.98↑. The KNAT1 fold change (BA 0.1 μM, 1 h, AS8, ↑ up) was 10.99↑, the KNAT1 fold change (BA 0.1 μM, 1 h, AS21, ↑ up) was 11.83↑ and the KNAT1 fold change (BA 0.1 μM, 1 h, OE1, ↓ down) was 2.96↓. For the same compound, the KNAT1 fold change (BA 0.1 μM, 1 h, OE12, ↓ down) was 3.21↓, the KNAT1 fold change (BA 0.1 μM, 1 h, OE18, ↓ down) was 5.01↓ and the KNAT1 fold change (BA 0.1 μM, 1 h, Wild type, ↑ up) was 3.99↑. For the same compound, the KNAT1 fold change (BA 1.0 μM, 5 min, AS1, ↑ up) was 10.43↑, the KNAT1 fold change (BA 1.0 μM, 5 min, AS8, ↑ up) was 11.01↑ and the KNAT1 fold change (BA 1.0 μM, 5 min, AS21, ↑ up) was 11.93↑. The KNAT1 fold change (BA 1.0 μM, 5 min, OE1, ↓ down) was 2.76↓, the KNAT1 fold change (BA 1.0 μM, 5 min, OE12, ↓ down) was 3.19↓ and the KNAT1 fold change (BA 1.0 μM, 5 min, OE18, ↓ down) was 4.36↓. The KNAT1 fold change (BA 1.0 μM, 5 min, Wild type, ↑ up) was 4.1↑, the KNAT1 fold change (BA 1.0 μM, 15 min, AS1, ↑ up) was 10.68↑ and the KNAT1 fold change (BA 1.0 μM, 15 min, AS8, ↑ up) was 11.43↑. For the same compound, the KNAT1 fold change (BA 1.0 μM, 15 min, AS21, ↑ up) was 12.02↑, the KNAT1 fold change (BA 1.0 μM, 15 min, OE1, ↓ down) was 2.51↓ and the KNAT1 fold change (BA 1.0 μM, 15 min, OE12, ↓ down) was 3.01↓. For the same compound, the KNAT1 fold change (BA 1.0 μM, 15 min, OE18, ↓ down) was 4.21↓, the KNAT1 fold change (BA 1.0 μM, 15 min, Wild type, ↑ up) was 4.31↑ and the KNAT1 fold change (BA 1.0 μM, 30 min, AS1, ↑ up) was 10.73↑. For the same compound, the KNAT1 fold change (BA 1.0 μM, 30 min, AS8, ↑ up) was 11.69↑, the KNAT1 fold change (BA 1.0 μM, 30 min, AS21, ↑ up) was 12.35↑ and the KNAT1 fold change (BA 1.0 μM, 30 min, OE1, ↓ down) was 2.29↓. The KNAT1 fold change (BA 1.0 μM, 30 min, OE12, ↓ down) was 2.89↓, the KNAT1 fold change (BA 1.0 μM, 30 min, OE18, ↓ down) was 4.01↓ and the KNAT1 fold change (BA 1.0 μM, 30 min, Wild type, ↑ up) was 4.59↑. The KNAT1 fold change (BA 1.0 μM, 1 h, AS1, ↑ up) was 11.01↑, the KNAT1 fold change (BA 1.0 μM, 1 h, AS8, ↑ up) was 11.93↑ and the KNAT1 fold change (BA 1.0 μM, 1 h, AS21, ↑ up) was 12.76↑. For the same compound, the KNAT1 fold change (BA 1.0 μM, 1 h, OE1, ↓ down) was 2.01↓, the KNAT1 fold change (BA 1.0 μM, 1 h, OE12, ↓ down) was 2.16↓ and the KNAT1 fold change (BA 1.0 μM, 1 h, OE18, ↓ down) was 3.92↓. For the same compound, the KNAT1 fold change (BA 1.0 μM, 1 h, Wild type, ↑ up) was 4.87↑, the KNAT1 fold change (BA 5.0 μM, 5 min, AS1, ↑ up) was 10.98↑ and the KNAT1 fold change (BA 5.0 μM, 5 min, AS8, ↑ up) was 11.98↑. The KNAT1 fold change (BA 5.0 μM, 5 min, AS21, ↑ up) was 12.43↑, the KNAT1 fold change (BA 5.0 μM, 5 min, OE1, ↓ down) was 2.19↓ and the KNAT1 fold change (BA 5.0 μM, 5 min, OE12, ↓ down) was 2.87↓. For the same compound, the KNAT1 fold change (BA 5.0 μM, 5 min, OE18, ↓ down) was 3.45↓, the KNAT1 fold change (BA 5.0 μM, 5 min, Wild type, ↑ up) was 5.52↑ and the KNAT1 fold change (BA 5.0 μM, 15 min, AS1, ↑ up) was 11.01↑. The KNAT1 fold change (BA 5.0 μM, 15 min, AS8, ↑ up) was 12.07↑, the KNAT1 fold change (BA 5.0 μM, 15 min, AS21, ↑ up) was 12.54↑ and the KNAT1 fold change (BA 5.0 μM, 15 min, OE1, ↓ down) was 2.01↓. The KNAT1 fold change (BA 5.0 μM, 15 min, OE12, ↓ down) was 2.62↓, the KNAT1 fold change (BA 5.0 μM, 15 min, OE18, ↓ down) was 3.18↓ and the KNAT1 fold change (BA 5.0 μM, 15 min, Wild type, ↑ up) was 5.69↑. For the same compound, the KNAT1 fold change (BA 5.0 μM, 30 min, AS1, ↑ up) was 11.23↑, the KNAT1 fold change (BA 5.0 μM, 30 min, Wild type, ↑ up) was 5.89↑ and the “KNAT1 transcripts, dose dependence” value (BA 0.01-5 μM pulse, 5 min-1 h) was “dose-dependent increase”.
